Columns and labels:
[1] = test system: PTPN2; experiment: HiBiT-Degradation B16F10.4 PTPN2; type: cell-based; details: B16F10.4 cells, 24.0 hours
[2] = biological target: T1, PTPN2 (Homo sapiens, UniProt P17706); experiment: HiBiT-Degradation 293T.109 PTPN2 (Nano-Glo HiBiT Lytic Assay); type: cell-based; details: 293T.109 (HiBiT-PTPN2) cells, 24.0 hours
T1 construct: expressed in transfected cells; host or cells: 293T (293T.109 HiBiT-PTPN2 line; parental 293T WT from ATCC)
T1 sequence (P17706 1-415): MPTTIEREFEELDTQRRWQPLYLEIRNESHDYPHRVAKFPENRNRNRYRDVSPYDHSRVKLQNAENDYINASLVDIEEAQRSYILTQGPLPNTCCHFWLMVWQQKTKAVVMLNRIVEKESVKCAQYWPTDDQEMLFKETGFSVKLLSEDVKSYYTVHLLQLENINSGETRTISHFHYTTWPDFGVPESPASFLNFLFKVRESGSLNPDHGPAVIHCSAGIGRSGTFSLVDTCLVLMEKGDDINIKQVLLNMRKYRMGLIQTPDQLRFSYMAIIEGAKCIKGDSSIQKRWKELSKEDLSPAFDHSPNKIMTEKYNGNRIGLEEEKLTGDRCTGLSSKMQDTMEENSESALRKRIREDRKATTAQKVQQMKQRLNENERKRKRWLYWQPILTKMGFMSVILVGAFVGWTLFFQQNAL
Procedure, shortened: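 Luminescence from a lytic HiBiT read gave PTPN2 levels after 24 h compound exposure at 37° C. Compounds were tested at 11 half-log points from a 10 μM top concentration, in duplicate. The cells were 293T engineered with an N-terminal HiBiT–PTPN2 fusion, plated at 5000 per well, with untreated wells as negative control and no-reagent wells as positive control.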

Structure (SMILES): O=C1CCC(N2C(=O)c3cccc(NCc4cn(C5CCN(CC(=O)Nc6ccc7c(F)c(N8CC(=O)NS8(=O)=O)c(O)cc7c6)CC5)nn4)c3C2=O)C(=O)N1 (stereo not shown) [Example 67]
- DC50 [1]: ≥ 1000 nM
- DC50 [2]: 200 to 1000 nM

Structure (SMILES): Cn1c(=O)n(C2CCC(=O)NC2=O)c2cccc(C3CCN(CC(=O)NCCOc4ccc5cc(O)c(N6CC(=O)NS6(=O)=O)c(F)c5c4)CC3)c21 (stereo not shown) [Example 33]
- DC50 [1]: ≥ 1000 nM
- DC50 [2]: 200 to 1000 nM

Structure (SMILES): Cn1c(=O)n(C2CCC(=O)NC2=O)c2ccc([C@H]3CC[C@H](CNC(=O)c4ccc5c(F)c(N6CC(=O)NS6(=O)=O)c(O)cc5c4)CC3)cc21 (single isomer, unassigned) [Example 76]
- DC50 [1]: 50 to 200 nM
- DC50 [2]: 10 to 50 nM

Structure (SMILES): O=C(CCOCCn1cc(CNc2cccc3c2C(=O)N(C2CCC(=O)NC2=O)C3=O)nn1)NCCOc1ccc2cc(O)c(N3CC(=O)NS3(=O)=O)c(F)c2c1 (stereo not shown) [Example 48]
- DC50 [1]: ≥ 1000 nM
- DC50 [2]: ≥ 1000 nM

Structure (SMILES): Cn1c(=O)n(C2CCC(=O)NC2=O)c2ccc(Nc3ccc(CNC(=O)c4ccc5c(F)c(N6CC(=O)NS6(=O)=O)c(O)cc5c4)cc3)cc21 (stereo not shown) [Example 148, N-[[4-[[1-(2,6-dioxo-3-piperidyl)-3-methyl-2-oxo-benzimidazol-5-yl]amino]phenyl]methyl]-5-fluoro-7-hydroxy-6-(1,1,4-trioxo-1,2,5-thiadiazolidin-2-yl)naphthalene-2-carboxamide]
- DC50 [1]: 200 to 1000 nM
- DC50 [2]: 200 to 1000 nM

Structure (SMILES): Cn1c(=O)n(C2CCC(=O)NC2=O)c2ccc(C3CCN(C(=O)CNc4ccc5c(F)c(N6CC(=O)NS6(=O)=O)c(O)cc5c4)CC3)cc21 (stereo not shown) [Example 54]
- DC50 [1]: ≥ 1000 nM
- DC50 [2]: 200 to 1000 nM

Structure (SMILES): O=C1CCC(N2C(=O)c3ccc(NCc4cnn(C5CN(C(=O)Nc6ccc7c(F)c(N8CC(=O)NS8(=O)=O)c(O)cc7c6)C5)c4)cc3C2=O)C(=O)N1 (stereo not shown) [Example 64]
- DC50 [1]: ≥ 1000 nM
- DC50 [2]: 200 to 1000 nM

Structure (SMILES): Cn1c(=O)n(C2CCC(=O)NC2=O)c2ccc([C@H]3CC[C@H](CC(=O)Nc4ccc5c(F)c(N6CC(=O)NS6(=O)=O)c(O)cc5c4)CC3)cc21 (single isomer, unassigned) [Example 81b, N-(6-(1,1-dioxido-4-oxo-1,2,5-thiadiazolidin-2-yl)-5-fluoro-7-hydroxynaphthalen-2-yl)-2-((1r,4r)-4-(1-(2,6-dioxopiperidin-3-yl)-3-methyl-2-oxo-2,3-dihydro-1H-benzo[d]imidazol-5-yl)cyclohexyl)acetamide]
- DC50 [1]: 200 to 1000 nM
- DC50 [2]: 10 to 50 nM

Structure (SMILES): Cn1c(=O)n(C2CCC(=O)NC2=O)c2ccc(C3CCN(CC(=O)N4CC(Nc5ccc6cc(O)c(N7CC(=O)NS7(=O)=O)c(F)c6c5)C4)CC3(F)F)cc21 (stereo not shown) [Example 171, 3-(5-(1-(2-(3-((7-(1,1-dioxido-4-oxo-1,2,5-thiadiazolidin-2-yl)-8-fluoro-6-hydroxynaphthalen-2-yl)amino)azetidin-1-yl)-2-oxoethyl)-3,3-difluoropiperidin-4-yl)-3-methyl-2-oxo-2,3-dihydro-1H-benzo[d]imidazol-1-yl)piperidine-2,6-dione]
- DC50 [1]: 50 to 200 nM
- DC50 [2]: 50 to 200 nM

Structure (SMILES): Cn1c(=O)n(C2CCC(=O)NC2=O)c2ccc(C3CCN(CCN4CCC[C@H](COc5ccc6cc(O)c(N7CC(=O)NS7(=O)=O)c(F)c6c5)C4)CC3)cc21 (stereo partly drawn) [Example 147, 3-[5-[1-[2-[(3S)-3-[[8-fluoro-6-hydroxy-7-(1,1,4-trioxo-1,2,5-thiadiazolidin-2-yl)-2-naphthyl]oxymethyl]-1-piperidyl]ethyl]-4-piperidyl]-3-methyl-2-oxo-benzimidazol-1-yl]piperidine-2,6-dione]
- DC50 [1]: 200 to 1000 nM
- DC50 [2]: 200 to 1000 nM

Structure (SMILES): O=C1CCC(N2Cc3cc(NCc4cn(CCC(=O)Nc5ccc6c(F)c(N7CC(=O)NS7(=O)=O)c(O)cc6c5)nn4)ccc3C2=O)C(=O)N1 (stereo not shown) [Example 15, 3-[4-[[[2-(2,6-dioxo-3-piperidyl)-1-oxo-isoindolin-5-yl]amino]methyl]triazol-1-yl]-N-[5-fluoro-7-hydroxy-6-(1,1,4-trioxo-1,2,5-thiadiazolidin-2-yl)-2-naphthyl]propanamide]
- DC50 [1]: 200 to 1000 nM
- DC50 [2]: 200 to 1000 nM

Structure (SMILES): Cn1c(=O)n(C2CCC(=O)NC2=O)c2ccc(C3CCN(C(=O)CCC(=O)NCCOc4ccc5cc(O)c(N6CC(=O)NS6(=O)=O)c(F)c5c4)CC3)cc21 (stereo not shown) [Example 30]
- DC50 [1]: ≥ 1000 nM
- DC50 [2]: ≥ 1000 nM

Structure (SMILES): Cn1c(=O)n(C2CCC(=O)NC2=O)c2ccc(C3CCN(CCCC(=O)Nc4ccc5c(F)c(N6CC(=O)NS6(=O)=O)c(O)cc5c4)CC3)cc21 (stereo not shown) [Example 70]
- DC50 [1]: ≥ 1000 nM
- DC50 [2]: ≥ 1000 nM

Structure (SMILES): Cn1c(=O)n(C2CCC(=O)NC2=O)c2ccc(C3CCN(CCN4CC[C@H](COc5ccc6cc(O)c(N7CC(=O)NS7(=O)=O)c(F)c6c5)C4)CC3)cc21 (stereo partly drawn) [Example 150, 3-[5-[1-[2-[(3S)-3-[[8-fluoro-6-hydroxy-7-(1,1,4-trioxo-1,2,5-thiadiazolidin-2-yl)-2-naphthyl]oxymethyl]pyrrolidin-1-yl]ethyl]-4-piperidyl]-3-methyl-2-oxo-benzimidazol-1-yl]piperidine-2,6-dione]
- DC50 [1]: 50 to 200 nM
- DC50 [2]: 50 to 200 nM

Structure (SMILES): Cn1c(=O)n(C2CCC(=O)NC2=O)c2ccc(C3CCN(Cc4ccn(-c5ccc6c(F)c(N7CC(=O)NS7(=O)=O)c(O)cc6c5)n4)CC3)cc21 (stereo not shown) [Example 154, 3-(5-(1-((1-(6-(1,1-dioxido-4-oxo-1,2,5-thiadiazolidin-2-yl)-5-fluoro-7-hydroxynaphthalen-2-yl)-1H-pyrazol-3-yl)methyl)piperidin-4-yl)-3-methyl-2-oxo-2,3-dihydro-1H-benzo[d]imidazol-1-yl)piperidine-2,6-dione]
- DC50 [1]: ≥ 1000 nM
- DC50 [2]: 200 to 1000 nM

Structure (SMILES): Cn1c(=O)n(C2CCC(=O)NC2=O)c2cccc(OC3CCN(CC(=O)NCCOc4ccc5cc(O)c(N6CC(=O)NS6(=O)=O)c(F)c5c4)CC3)c21 (stereo not shown) [Example 9, 2-[4-[1-(2,6-dioxo-3-piperidyl)-3-methyl-2-oxo-benzimidazol-4-yl]oxy-1-piperidyl]-N-[2-[[8-fluoro-6-hydroxy-7-(1,1,4-trioxo-1,2,5-thiadiazolidin-2-yl)-2-naphthyl]oxy]ethyl]acetamide]
- DC50 [1]: 200 to 1000 nM
- DC50 [2]: 50 to 200 nM

Structure (SMILES): O=C1CCC(Nc2ccc(C3CCN(CC(=O)Nc4ccc5c(F)c(N6CC(=O)NS6(=O)=O)c(O)cc5c4)CC3)cc2Oc2ccccc2)C(=O)N1 (stereo not shown) [Example 101, 2-[4-[4-[(2,6-dioxo-3-piperidyl)amino]-3-phenoxy-phenyl]-1-piperidyl]-N-[5-fluoro-7-hydroxy-6-(1,1,4-trioxo-1,2,5-thiadiazolidin-2-yl)-2-naphthyl]acetamide]
- DC50 [1]: ≥ 1000 nM
- DC50 [2]: 200 to 1000 nM

Structure (SMILES): CC(C)(Nc1cccc2c1C(=O)N(C1CCC(=O)NC1=O)C2=O)c1cn(CCOCCC(=O)NCCOc2ccc3cc(O)c(N4CC(=O)NS4(=O)=O)c(F)c3c2)nn1 (stereo not shown) [Example 37]
- DC50 [1]: ≥ 1000 nM
- DC50 [2]: ≥ 1000 nM

Structure (SMILES): Cn1nc(C2CCC(=O)NC2=O)c2ccc(C3CCN(CC(=O)Nc4ccc5c(F)c(N6CC(=O)NS6(=O)=O)c(O)cc5c4)CC3)cc21 (stereo not shown) [Example 28, 2-[4-[3-(2,6-dioxo-3-piperidyl)-1-methyl-indazol-6-yl]-1-piperidyl]-N-[5-fluoro-7-hydroxy-6-(1,1,4-trioxo-1,2,5-thiadiazolidin-2-yl)-2-naphthyl]acetamide]
- DC50 [1]: 50 to 200 nM
- DC50 [2]: < 10 nM

Structure (SMILES): Cn1c(=O)n(C2CCC(=O)NC2=O)c2ccc(C3CCN(CC(=O)N4CC(Oc5ccc6cc(O)c(N7CC(=O)NS7(=O)=O)c(F)c6c5)C4)CC3)cc21 (stereo not shown) [Example 112, 3-[5-[1-[2-[3-[[8-fluoro-6-hydroxy-7-(1,1,4-trioxo-1,2,5-thiadiazolidin-2-yl)-2-naphthyl]oxy]azetidin-1-yl]-2-oxo-ethyl]-4-piperidyl]-3-methyl-2-oxo-benzimidazol-1-yl]piperidine-2,6-dione]
- DC50 [1]: 50 to 200 nM
- DC50 [2]: 10 to 50 nM

Structure (SMILES): Cn1c(=O)n(C2CCC(=O)NC2=O)c2ccc(NC3CN(CC(=O)Nc4ccc5c(F)c(N6CC(=O)NS6(=O)=O)c(O)cc5c4)C3)cc21 (stereo not shown) [Example 27, 2-[3-[[1-(2,6-dioxo-3-piperidyl)-3-methyl-2-oxo-benzimidazol-5-yl]amino]azetidin-1-yl]-N-[5-fluoro-7-hydroxy-6-(1,1,4-trioxo-1,2,5-thiadiazolidin-2-yl)-2-naphthyl]acetamide]
- DC50 [1]: 200 to 1000 nM
- DC50 [2]: 10 to 50 nM

Structure (SMILES): C[C@@H]1CC(c2ccc3c(c2)n(C)c(=O)n3C2CCC(=O)NC2=O)CCN1CC(=O)Nc1ccc2c(F)c(N3CC(=O)NS3(=O)=O)c(O)cc2c1 (stereo partly drawn) [Example 178, N-(6-(1,1-dioxido-4-oxo-1,2,5-thiadiazolidin-2-yl)-5-fluoro-7-hydroxynaphthalen-2-yl)-2-((2R)-4-(1-(2,6-dioxopiperidin-3-yl)-3-methyl-2-oxo-2,3-dihydro-1H-benzo[d]imidazol-5-yl)-2-methylpiperidin-1-yl)acetamide]
- DC50 [1]: 50 to 200 nM
- DC50 [2]: 10 to 50 nM

Structure (SMILES): O=C1CCC(N2Cc3c(OCC(=O)N4CCC(C(=O)NCCOc5ccc6cc(O)c(N7CC(=O)NS7(=O)=O)c(F)c6c5)CC4)cccc3C2=O)C(=O)N1 (stereo not shown) [Example 3, 1-[2-[2-(2,6-dioxo-3-piperidyl)-1-oxo-isoindolin-4-yl]oxyacetyl]-N-[2-[[8-fluoro-6-hydroxy-7-(1,1,4-trioxo-1,2,5-thiadiazolidin-2-yl)-2-naphthyl]oxy]ethyl]piperidine-4-carboxamide]
- DC50 [1]: 200 to 1000 nM
- DC50 [2]: 50 to 200 nM
